Reference: patent publication US10202408B2, “Prodrugs and methods of use thereof” (Health Innovation Ventures B.V., priority 2012, dated 2019)
In brackets after ≈: the same amount, converted by molar mass.

Assay: Solubility determined by HPLC
Format: physicochemical
Details: plasma or biological fluid; α-Minimal Essential Media (α-MEM) containing 5% Fetal Calf Serum (FCS)
Protocol: Table Footnote: ^aDetermined in α-Minimal Essential Media (α-MEM) containing 5% Fetal Calf Serum (FCS). ^bDetermined in Phosphate Buffered Saline (PBS) containing 2 equivalents of sodium bicarbonate. ^cDetermined in Lactate Buffer at pH=4.
Solubility and stability of compounds in media (+5% Fetal calf serum), phosphate buffered saline (+sodium bicarbonate) or lactate buffer (at pH=4) were determined by HPLC.

In the case of `CS(=O)(=O)c1cc([N+](=O)[O-])c(C(N)=O)cc1N(CCBr)CCBr` [compound 4], the solubility is reported as 68 µM (≈ 32.2 µg/mL).
